From US8911984B2, “Tannase, gene encoding same, and process for producing same” (Amano Enzyme Inc., priority 2008, dated 2014)

B1: purified enzyme: tannase purified from Aspergillus awamori NBRC-4033 (IFO-4033), amino acid sequence SEQ ID NO: 5 (protein, listed as Aspergillus awamorii)
chain: MRSPAWASIAITAFAALANAGTPSTLAELCTDSIVKAALPPSEFIKGITIDSDSVTTEVVTNSSFSSEFYPSATIDYCNVTFAYSHDGIDGDQVLLEIWLPAPTNFKNRWLSTGGGGYAINSGDQSLPGGVMYGAASGMTDGGFGGFSNNADTAMLLANGTLNYETLYMFAYKAHRELSLLGKALTRNVYGMSDSDKLYAYYQGCSEGGREGWSQVQRFGDEWDGAIIGAPAFRWSFQQTQHLYSNIVEKTLDYYPPPCELDKIVNETIAACDAMDGKVDWVVARTDLCLLDFDISTIEGKPYSCAASRGTPAQNGTVSAKGIEVAKTIINGLHDSQGRRVYFSYQPTAAFDDAETQYNSTTGQWGLDIDQLGGEYIALLVDKNGTTLDSLDGITYDTLKDWMISGLQEYYSTLQTTWPDLTPFHNAGGKVIHFHGDADFSIPTAASIRYWESVRSIMYPNKDYNSSAEALNEWYRLYTVPGAGHCATNDAMPNGPFPQTNMAVMIDWVENGVVPTTLNATVLQGENEGQNQQLCAWPLRPLWTNNGTTMECVYNQRSIDSWHYDLDAVPMPVY

Columns and labels:
Tannase = experiment: Effect of metallic ion and inhibitor on tannase activity; assay type: biochemical, Aspergillus awamori; settings: 30° C. 30 minutes, pH 5.0; for Relative activity (%): no addition = 100%
Experimental: 0.5 mL of a 50 mM citric acid buffer solution (pH 5.0) containing 1% tannic acid (Tannic acid, ACS Reagent [SIGMA]) is added with 0.5 ml of an enzyme solution, […], thereafter adding a 0.2 M acetic acid buffer solution (pH 5.0) containing 2% BSA to terminate the reaction. After terminating the reaction, the reaction solution is stood still in ice for 20 minutes and then centrifuged at 3,000 rpm for 20 minutes. The obtained supernatant is diluted 50 holds and an absorbance at a wavelength of 260 nm is measured. An analytical curve (standard curve) is formed using gallic acid and an enzyme amount that releases 1 μM of gallic acid for 1 minute is assumed to be 1 unit. […] The activity increased by addition of urea.

[1] = test system: tannase derived from Aspergillus awamori; experiment: Substrate specificity of tannase (rhodanine method); assay type: biochemical; settings: 0.17% tannic acid or 10 mM gallic acid ester, pH 5.0, 37° C., 30 minutes; tannic acid = 100%
Experimental: As described below, the method of Sharma (Anal. Biochem. 279, 85-89, 2000) was modified and substrate specificity was measured.
125 μL of a 50 mM citric acid buffer solution (pH 5.0) containing 0.17% tannic acid or 10 mM gallic acid esters (methyl gallate, ethyl gallate, propyl gallate, and isoamyl gallate) is added with 125 μL of an enzyme solution and incubated at 37° C. for 30 minutes, followed by adding and mixing 300 μL of methanol containing 0.667% Rhodanine, and the reaction solution is stood still for 10 minutes. Next, 200 μL of 0.5 N NaOH is added and mixed and the reaction solution is stood still for 10 minutes. Subsequently, the reaction solution is diluted with 9 mL of distilled water and left for 5 minutes, and an absorbance at a wavelength of 520 nm is measured. An analytical curve (standard curve) was formed using gallic acid and an activity that releases 1 μM of gallic acid for 1 minute is assumed to be 1 unit.
Substrate specificities to tannic acid and gallic acid esters (methyl gallate, ethyl gallate, propyl gallate, and isoamyl gallate) were measured in the above-mentioned measurement method of substrate specificity. When a dissolution activity to tannic acid was assumed to be 100%, a dissolution activity of each of the gallic acid esters was 41% for methyl gallate, 30% for ethyl gallate, 29% for propyl gallate, and 27% for isoamyl gallate.

[2] = Isoelectric point by isoelectric electrophoresis (PhastSystem); assay type: physicochemical
Experimental: When the isoelectric point of the present enzyme was measured by isoelectric electrophoresis using PhastSystem (GE Healthcare Bio-Sciences Ltd.), it was 6.4.

[3] = pH stability of purified tannase; assay type: biochemical; settings: 30° C., 30 minutes
Experimental: (§1) 0.5 mL of a 50 mM citric acid buffer solution (pH 5.0) containing 1% tannic acid (Tannic acid, ACS Reagent [SIGMA]) is added with 0.5 ml of an enzyme solution, and incubated at 37° C. for 30 minutes, thereafter adding a 0.2 M acetic acid buffer solution (pH 5.0) containing 2% BSA to terminate the reaction. After terminating the reaction, the reaction solution is stood still in ice for 20 minutes and then centrifuged at 3,000 rpm for 20 minutes. The obtained supernatant is diluted 50 holds and an absorbance at a wavelength of 260 nm is measured. An analytical curve (standard curve) is formed using gallic acid and an enzyme amount that releases 1 μM of gallic acid for 1 minute is assumed to be 1 unit.
The purified enzyme was treated in each buffer solution (citric acid buffer solutions at pH 3.0, 3.5, 4.0, 4.5, 5.0, 5.5 and 6.0, and phosphate buffer solutions at pH 6.0, 6.5, 7.0, 7.5 and 8.0) at 30° C. for 30 minutes and diluted 5 holds with a 0.2 M acetic acid buffer solution (pH 5.0), and an activity was measured in the above-mentioned measurement method of a tannase activity. Each measurement result was shown as a relative activity, assuming a value of a pH showing the maximum activity as 100% (FIG. 4). The stable pH range was from 3 to 8.

[4] = Optimum reaction pH of tannase; assay type: biochemical; settings: 37° C., 30 minutes, 1% tannic acid; citric acid buffer pH 3-6, phosphate buffer pH 6-8
Experimental: as §1
The optimum reaction pH was measured under the reaction condition of 37° C. for 30 minutes in each buffer solution (citric acid buffer solutions at pH 3.0, 3.5, 4.0, 4.5, 5.0, 5.5 and 6.0, and phosphate buffer solutions at pH 6.0, 6.5, 7.0, 7.5 and 8.0) using 1% tannic acid for a substrate. Each measurement result was shown as a relative activity, assuming a value of a pH showing the maximum activity as 100% (FIG. 2). The optimum reaction pH was about 5.5.

[5] = Optimum reaction temperature of tannase; assay type: biochemical; settings: 50 mM citric acid buffer solution (pH 5.0), 30-80° C. tested
Experimental: as §1
According to the above-mentioned measurement method of a tannase activity, the purified enzyme was reacted at reaction temperatures of 30° C., 35° C., 40° C., 45° C., 50° C., 55° C., 60° C., 65° C., 70° C., 75° C. and 80° C. Each measurement result was shown as a relative activity, assuming a value at a temperature showing the maximum activity as 100% (FIG. 1). The optimum reaction temperature was around 70° C.

[6] = Thermostability of purified tannase (residual activity after thermal treatment); assay type: biochemical; settings: 30 minutes, 50 mM citric acid buffer solution (pH 5.0)
Experimental: as §1
The purified enzyme was thermally treated for 30 minutes at each temperature of 30° C., 35° C., 40° C., 45° C., 50° C., 55° C., 60° C., 65° C., 70° C., 75° C. and 80° C. in a 50 mM citric acid buffer solution (pH 5.0), and a residual activity was then measured in the above-mentioned measurement method of a tannase activity. Each measurement result was shown as a residual activity, assuming a thermally untreated activity as 100% (FIG. 3). The purified enzyme had 90% or more of a residual activity in the thermal treatment at 65° C. for 30 minutes and was stable until 65° C.

Molecule	Relative activity (%) (Tannase; 20 mM metallic ion or EDTA)	dissolution activity relative to tannic acid [1]	further results
[Ca+2] [Ca^2+]	109%		
NC(N)=O [Urea, urea]			effect on tannase activity (in words) (Tannase): increased; Relative activity (%) (Tannase; urea 0.4 M): 108%; Relative activity (%) (Tannase; urea 0.8 M): 117%; Relative activity (%) (Tannase; urea 2 M): 150%; Relative activity (%) (Tannase; urea 4 M): 197%
[Mg+2] [Mg^2+]	118%		
[Fe+3] [Fe^3+]	91%		
CCCOC(=O)c1cc(O)c(O)c(O)c1 [propyl gallate]		29%	
COC(=O)c1cc(O)c(O)c(O)c1 [methyl gallate]		41%	
CCOC(=O)c1cc(O)c(O)c(O)c1 [ethyl gallate]		30%	
O=C(O)CN(CCN(CC(=O)O)CC(=O)O)CC(=O)O [EDTA]	101%		
CC(C)CCOC(=O)c1cc(O)c(O)c(O)c1 [isoamyl gallate]		27%	
[Cu+2] [Cu^2+]	72%		
[Mn+2] [Mn^2+]	98%		
[Zn+2] [Zn^2+]	82%		
O=C(OC[C@H]1O[C@@H](OC(=O)c2cc(O)c(O)c(OC(=O)c3cc(O)c(O)c(O)c3)c2)[C@H](OC(=O)c2cc(O)c(O)c(OC(=O)c3cc(O)c(O)c(O)c3)c2)[C@@H](OC(=O)c2cc(O)c(O)c(OC(=O)c3cc(O)c(O)c(O)c3)c2)[C@@H]1OC(=O)c1cc(O)c(O)c(OC(=O)c2cc(O)c(O)c(O)c2)c1)c1cc(O)c(O)c(OC(=O)c2cc(O)c(O)c(O)c2)c1 [tannic acid]		100%	
B1			isoelectric point [2]: 6.4; activity with respect to the maximum activity after treatment within pH 3 to 8 [3]: ≥ 80%; optimum reaction pH [4]: about 5.5; optimum reaction temperature [5]: around 70 °C; residual activity after thermal treatment ([6]; 65° C., untreated = 100%): ≥ 90%; temperature up to which enzyme is stable [6]: ≤ 65 °C
